# From patent publication US20120258980A1, “Antibacterial Agent for Drug-Resistant Bacteria, Method for Screening for Same, and Use of Same” (priority 2009, published 2012)
# Read-outs that look alike come from different tables or passages of the source.
# Tests used:
# Enterococcus faecalis = experiment: MIC measurement, Test Example 6 (enterococcus); format: cell-based; conditions: Enterococcus faecalis, read-out: MIC
# Method in brief: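 Broth microdilution in cation-adjusted Mueller Hinton: inoculum from overnight TSB cultures adjusted to absorbance 0.3 at 578 nm and diluted 500×. Compounds at various concentrations; static 37° C overnight incubation. MIC = lowest concentration without visible turbidity; strains include two vancomycin-resistant NCTC isolates.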
# [1] = system: methicillin-susceptible S. aureus (MSSA), MRSA and mutants thereof; experiment: MIC measurement, Test Example 3 (MSSA, MRSA and sequential gyrA/grlA quinolone-resistant mutants); format: cell-based, Staphylococcus aureus; conditions: Staphylococcus aureus
# Method in brief: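 Broth microdilution in cation-adjusted Mueller Hinton broth: inoculum from overnight TSB cultures set to A578 0.3, then 500-fold diluted and added 1:1 to serial compound concentrations.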
# [2] = system: MRSA, CA-MRSA and MSSA of Staphylococcus aureus; experiment: MIC measurement, Test Example 4 (MRSA, CA-MRSA and MSSA strains); format: cell-based; conditions: Staphylococcus aureus
# Method in brief: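 S. aureus strains (FDA209P control) grown overnight in TSB at 37° C, resuspended in CAMHB, adjusted to A578 0.3 and diluted 500-fold. Equal volume added to CAMHB with serial compound concentrations, incubated statically overnight at 37° C. MIC read visually as lowest concentration without turbidity.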
# [3] = system: VISA clinical isolates of MRSA (VI-MRSA) and of MSSA (VI-MSSA); experiment: microbe, parasite or virus in culture; format: cell-based, Staphylococcus aureus
# Method in brief: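 Strains were grown overnight at 37° C in TSB, adjusted in CAMHB to 0.3 absorbance at 578 nm and diluted 500-fold before equal-volume addition to compound dilutions.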
structure (smiles),measurement,setting,value
"CC1COc2c(N3CCN(C)CC3)c(F)cc3c(=O)c(C(=O)O)cn1c23 (stereo not drawn) [OFLX, ofloxacin]",MIC,"Enterococcus faecalis; E. faecalis 36-15672, quinolone-susceptible enterococci",2 µg/mL
same,MIC,"Enterococcus faecalis; E. faecalis 36-15673, quinolone-susceptible enterococci",2 µg/mL
same,MIC,"Enterococcus faecalis; E. faecalis 36-15678, quinolone-susceptible enterococci",2 µg/mL
same,MIC,"Enterococcus faecalis; E. faecalis 36-15686, quinolone-resistant enterococci",128 µg/mL
same,MIC,"Enterococcus faecalis; E. faecalis 36-15688, quinolone-susceptible enterococci",2 µg/mL
same,MIC,"Enterococcus faecalis; E. faecalis 36-15694, quinolone-resistant enterococci",64 µg/mL
same,MIC,"Enterococcus faecalis; E. faecalis 36-15696, quinolone-susceptible enterococci",2 µg/mL
same,MIC,"Enterococcus faecalis; E. faecalis 36-15703, quinolone-resistant enterococci",64 µg/mL
same,MIC,"Enterococcus faecalis; E. faecalis 36-15716, quinolone-resistant enterococci",128 µg/mL
same,MIC,"Enterococcus faecalis; E. faecalis 36-15718, quinolone-susceptible enterococci",2 µg/mL
same,MIC,"Enterococcus faecalis; E. faecalis 36-15720, quinolone-susceptible enterococci",2 µg/mL
same,MIC,"Enterococcus faecalis; E. faecalis 36-15722, quinolone-resistant enterococci",64 µg/mL
same,MIC,"Enterococcus faecalis; E. faecalis 36-15726, quinolone-resistant enterococci",128 µg/mL
same,MIC,"Enterococcus faecalis; E. faecalis 36-15730, quinolone-susceptible enterococci",4 µg/mL
same,MIC,"Enterococcus faecalis; E. faecalis 36-15736, quinolone-susceptible enterococci",2 µg/mL
same,MIC,"Enterococcus faecalis; E. faecalis 36-15741, quinolone-susceptible enterococci",4 µg/mL
same,MIC,"Enterococcus faecalis; NCTC 12201 / VRE, E. faecalis NCTC12201, vancomycin-resistant (VRE), quinolone-susceptible enterococci",2 µg/mL
same,MIC,"Enterococcus faecalis; NCTC 12203 / VRE, E. faecalis NCTC12203, vancomycin-resistant (VRE), quinolone-susceptible enterococci",2 µg/mL
same,MIC,"[1]; MR5867-1, first-step quinolone-resistant mutant, grlA E84K",1 µg/mL
same,MIC,"[1]; MR5867-3, third-step mutant, further grlA S80F",64 µg/mL
same,MIC,"[1]; MR5867-4, fourth-step mutant, further gyrA E88K",> 128 µg/mL
same,MIC,"[1]; MS5935-1, first-step quinolone-resistant mutant, grlA S80F",1 µg/mL
same,MIC,"[1]; MS5935-3, third-step mutant, further grlA E84K",128 µg/mL
same,MIC,"[1]; MS5952-1, first-step quinolone-resistant mutant, grlA S80Y",1 µg/mL
same,MIC,"[1]; MS5952-3, third-step mutant, further grlA A116V",64 µg/mL
same,MIC,"[2]; ATCC 29213 / MRSA / MSSA, ATCC 29213, MSSA",0.25 µg/mL
same,MIC,"[2]; COL, MRSA",0.5 µg/mL
same,MIC,"[2]; FDA209P / MRSA / MSSA, FDA209P, MSSA",0.125 µg/mL
same,MIC,"[2]; ISA12-1, MRSA",0.5 µg/mL
same,MIC,"[2]; ISA12-2, MRSA",0.5 µg/mL
same,MIC,"[2]; ISA35-1, MRSA",2 µg/mL
same,MIC,"[2]; ISA37-1, MSSA",0.25 µg/mL
same,MIC,"[2]; ISA49-1, MSSA",0.25 µg/mL
same,MIC,"[2]; ISA51-1, MSSA",0.5 µg/mL
same,MIC,"[2]; ISA56-3, MRSA",0.5 µg/mL
same,MIC,"[2]; ISA58-1, MRSA",0.5 µg/mL
same,MIC,"[2]; ISA62-1, MRSA",0.25 µg/mL
same,MIC,"[2]; ISA73-1, MSSA",0.25 µg/mL
same,MIC,"[2]; KBSA32, MRSA",0.25 µg/mL
same,MIC,"[2]; KBSA34, MRSA",0.5 µg/mL
same,MIC,"[2]; KBSA72, MRSA",> 128 µg/mL
same,MIC,"[2]; KBSA96, MRSA",16 µg/mL
same,MIC,"[2]; KBSA171, MRSA",32 µg/mL
same,MIC,"[2]; KSA24, MRSA",32 µg/mL
same,MIC,"[2]; KSA31, MRSA",8 µg/mL
same,MIC,"[2]; KSA36, MRSA",> 128 µg/mL
same,MIC,"[2]; MRSA / MSSA / NCTC 8325, NCTC 8325, MSSA",0.25 µg/mL
same,MIC,"[2]; MRSA / MSSA / USA300, USA300 FPR3757, CA-MRSA",16 µg/mL
same,MIC,"[2]; MW2, CA-MRSA",0.5 µg/mL
same,MIC,"[2]; N315, MRSA",0.25 µg/mL
same,MIC,"[3]; Staphylococcus aureus, 99/3700-W, VI-MRSA, The United Kingdom",16 µg/mL
same,MIC,"[3]; Staphylococcus aureus, 99/3759-V, VI-MRSA, The United Kingdom",32 µg/mL
same,MIC,"[3]; Staphylococcus aureus, 28160, VI-MRSA, South African Republic",64 µg/mL
same,MIC,"[3]; Staphylococcus aureus, 98141, VI-MRSA, France",16 µg/mL
same,MIC,"[3]; Staphylococcus aureus, A7 (JCSC4842), VI-MRSA, Taiwan",16 µg/mL
same,MIC,"[3]; Staphylococcus aureus, AMC11094, VI-MRSA, Korea",128 µg/mL
same,MIC,"[3]; Staphylococcus aureus, B7 (JCSC4852), VI-MRSA, Taiwan",16 µg/mL
same,MIC,"[3]; Staphylococcus aureus, BR1, VI-MRSA, Brazil",64 µg/mL
same,MIC,"[3]; Staphylococcus aureus, BR2, VI-MRSA, Brazil",64 µg/mL
same,MIC,"[3]; Staphylococcus aureus, BR3, VI-MRSA, Brazil",64 µg/mL
same,MIC,"[3]; Staphylococcus aureus, BR4, VI-MRSA, Brazil",64 µg/mL
same,MIC,"[3]; Staphylococcus aureus, BR5, VI-MRSA, Brazil",64 µg/mL
same,MIC,"[3]; Staphylococcus aureus, HIP06297, VI-MRSA, America",16 µg/mL
same,MIC,"[3]; Staphylococcus aureus, HIP06854, VI-MRSA, America",16 µg/mL
same,MIC,"[3]; Staphylococcus aureus, HIP07920, VI-MRSA, America",16 µg/mL
same,MIC,"[3]; Staphylococcus aureus, HIP07930, VI-MRSA, America",32 µg/mL
same,MIC,"[3]; Staphylococcus aureus, HIP08926, VI-MRSA, America",16 µg/mL
same,MIC,"[3]; Staphylococcus aureus, HIP09143, VI-MRSA, America",64 µg/mL
same,MIC,"[3]; Staphylococcus aureus, HIP09313, VI-MRSA, America",16 µg/mL
same,MIC,"[3]; Staphylococcus aureus, HIP09433, VI-MRSA, America",64 µg/mL
same,MIC,"[3]; Staphylococcus aureus, HIP09662, VI-MRSA, America",32 µg/mL
same,MIC,"[3]; Staphylococcus aureus, HIP09735, VI-MRSA, America",32 µg/mL
same,MIC,"[3]; Staphylococcus aureus, HIP09737, VI-MSSA, America",64 µg/mL
same,MIC,"[3]; Staphylococcus aureus, HIP09740, VI-MRSA, America",64 µg/mL
same,MIC,"[3]; Staphylococcus aureus, HIP10267, VI-MRSA, America",64 µg/mL
same,MIC,"[3]; Staphylococcus aureus, HIP10540, VI-MRSA, America",32 µg/mL
same,MIC,"[3]; Staphylococcus aureus, HIP12864, VI-MRSA, America",64 µg/mL
same,MIC,"[3]; Staphylococcus aureus, HIP13036, VI-MRSA, America",8 µg/mL
same,MIC,"[3]; Staphylococcus aureus, HIP13057, VI-MRSA, America",32 µg/mL
same,MIC,"[3]; Staphylococcus aureus, IL (HIP7737), VI-MRSA, America",128 µg/mL
same,MIC,"[3]; Staphylococcus aureus, JCSC7193, VI-MRSA, Thailand",16 µg/mL
same,MIC,"[3]; Staphylococcus aureus, JCSC7195, VI-MRSA, Thailand",64 µg/mL
same,MIC,"[3]; Staphylococcus aureus, JCSC7203, VI-MRSA, Thailand",16 µg/mL
same,MIC,"[3]; Staphylococcus aureus, LIM2, VI-MRSA, France",64 µg/mL
same,MIC,"[3]; Staphylococcus aureus, LY-1999-01, VI-MSSA, Oman",8 µg/mL
same,MIC,"[3]; Staphylococcus aureus, LY-1999-03, VI-MRSA, Oman",8 µg/mL
same,MIC,"[3]; Staphylococcus aureus, MI (HIP5827), VI-MRSA, America",128 µg/mL
same,MIC,"[3]; Staphylococcus aureus, MRSA / MSSA / NRS 76 / VISA, NRS76, VI-MSSA, America",64 µg/mL
same,MIC,"[3]; Staphylococcus aureus, MRSA / MSSA / NRS 79 / VISA, NRS79, VI-MRSA, America",128 µg/mL
same,MIC,"[3]; Staphylococcus aureus, MRSA / MSSA / NRS 118 / VISA, NRS118, VI-MRSA, America",64 µg/mL
same,MIC,"[3]; Staphylococcus aureus, MRSA / MSSA / NRS 126 / VISA, NRS126, VI-MRSA, America",16 µg/mL
same,MIC,"[3]; Staphylococcus aureus, Mu3, VI-MRSA, Japan",16 µg/mL
same,MIC,"[3]; Staphylococcus aureus, Mu50, VI-MRSA, Japan",16 µg/mL
same,MIC,"[3]; Staphylococcus aureus, NJ (HIP5836), VI-MRSA, America",64 µg/mL
same,MIC,"[3]; Staphylococcus aureus, P1V44, VI-MSSA, Belgium",4 µg/mL
same,MIC,"[3]; Staphylococcus aureus, PC, VI-MRSA, America",16 µg/mL
same,MIC,"[3]; Staphylococcus aureus, SA MER-S6, VI-MSSA, France",1 µg/mL
same,MIC,"[3]; Staphylococcus aureus, SA MER-S12, VI-MSSA, France",0.5 µg/mL
same,MIC,"[3]; Staphylococcus aureus, SA MER-S20, VI-MSSA, France",0.25 µg/mL
